Assay [1] concerns the target T1, recombinant human SOS1 polypeptide (amino acids 560-1049) (Homo sapiens, UniProt Q07889).
T1 construct: corresponding to amino acids 560-1049, expressed in E. Coli; made in house; host or cells: E. coli
T1 sequence (Q07889 560-1049): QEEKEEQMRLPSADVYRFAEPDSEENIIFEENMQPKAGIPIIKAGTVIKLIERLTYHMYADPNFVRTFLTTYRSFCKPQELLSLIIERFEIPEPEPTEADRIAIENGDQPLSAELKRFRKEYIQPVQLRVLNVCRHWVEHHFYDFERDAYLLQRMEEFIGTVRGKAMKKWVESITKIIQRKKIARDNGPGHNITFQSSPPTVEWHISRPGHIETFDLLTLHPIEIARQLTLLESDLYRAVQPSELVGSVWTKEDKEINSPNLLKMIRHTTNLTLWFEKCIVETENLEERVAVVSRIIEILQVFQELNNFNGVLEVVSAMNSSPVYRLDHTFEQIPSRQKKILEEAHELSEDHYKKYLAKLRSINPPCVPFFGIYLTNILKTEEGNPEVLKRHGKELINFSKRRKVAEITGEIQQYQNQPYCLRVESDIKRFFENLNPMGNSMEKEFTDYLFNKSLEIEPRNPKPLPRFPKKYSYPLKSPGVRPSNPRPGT
As to the kind of experiment: HTRF displacement assay: inhibition of labeled tracer binding to SOS1. Background: Time-resolved FRET reads energy transfer from a long-lived donor to a nearby acceptor.

The test system of another assay is pERK in MKN1 cells. The experiment in a line: pERK inhibition, In-Cell Western (LI-COR Odyssey), MKN1 cells. In kind it is cell-based. The conditions noted are these: Homo sapiens. The procedure, abridged:
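MKN1 cells were exposed for about 0.5–1 h at 37 °C to nine 3-fold dilutions starting at 10 µM. Cells were then fixed in formaldehyde, permeabilised with methanol, and immunostained for pERK and GAPDH with near-infrared secondary antibodies. GAPDH-normalised pERK signal relative to vehicle gave % inhibition, from which IC50 was fitted.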

Setting [2] is: Table A1, Morrison equation for competitive binding.
Setting [3] is: MKN-1, Table B1, MKN1 or H358 cells (table does not say which), 0.5-1 hour incubation, read-out: IC50 (nM), pERK inhibition.
[4] abbreviates: Table A, Morrison equation for competitive binding.
Setting [5] is: MKN-1, Table B, MKN1 or H358 cells (table does not say which), 0.5-1 hour incubation, read-out: IC50 (nM), pERK inhibition.
Where [6] appears, read: MKN-1, read-out: IC50 (nM), pERK inhibition.

The results in this text go back to patent US20250059182A1, “SOS1 INHIBITORS” (Mirati Therapeutics, Inc., priority 2021, published 2025).

Structures are written as SMILES. Where a name gives a salt, the structure may show the parent alone. Read-outs that look alike come from different tables or passages of the source.

The term Ki denotes the dissociation constant of the complex between target and ligand, obtained from inhibition or displacement. A word on the IC50: it is the concentration at which inhibition is half-maximal. On to `Cc1c(C#N)cccc1[C@@H](C)Nc1nnc(C)c2cnc(N3CCn4c(nnc4C(F)(F)F)C3)cc12` [Example P-33, (R)-2-methyl-3-(1-((4-methyl-7-(3-(trifluoromethyl)-5,6-dihydro-[1,2,4]triazolo[4,3-a]pyrazin-7(8H)-yl)pyrido[3,4-d]pyridazin-1-yl)amino)ethyl)benzonitrile], for which, in assay [1] (setting [2]), the Ki turned out to be 6.92 nM. Also, in the assay on pERK in MKN1 cells (setting [3]), the IC50 was 121 nM.
`Cc1nnc(N[C@H](C)c2cccc(C(C)(F)F)c2F)c2cc(N3CCN(C)CC3)c(F)cc12` [Example 4-16, (R)-N-(1-(3-(1,1-difluoroethyl)-2-fluorophenyl)ethyl)-6-fluoro-4-methyl-7-(4-methylpiperazin-1-yl)phthalazin-1-amine]: the Ki in assay [1] (setting [4]) was found to be 0.742 nM. Also, the IC50 in the assay on pERK in MKN1 cells (setting [5]) came out at 52 nM.
As to `Cc1c(C#N)cccc1[C@@H](C)Nc1nnc(C)c2cnc(N3C[C@@H]4CCCN[C@@H]4C3)cc12` (single isomer, unassigned) [Example 6-4], the inhibition constant (Ki) in assay [1] (setting [4]) was 2.74 nM. In addition, the half-inhibitory concentration (IC50) with pERK in MKN1 cells (setting [5]) came out at 194 nM.
Regarding `Cc1c(C#N)cccc1[C@@H](C)Nc1nnc(N2CC[C@@H](N(C)C)C2)c2cnc(N3C[C@H]4C[C@@H]3CO4)cc12` [Example 5-2, 3-((R)-1-((7-((1R, 4R)-2-oxa-5-azabicyclo[2.2.1]heptan-5-yl)-4-((R)-3-(dimethylamino)pyrrolidin-1-yl)pyrido[3,4-d]pyridazin-1-yl)amino)ethyl)-2-methylbenzonitrile], in assay [1] (setting [4]), the inhibition constant (Ki) turned out to be 0.973 nM. Further, in the assay with pERK in MKN1 cells (setting [5]), the IC50 is 115 nM.
`Cc1c(C#N)cccc1[C@@H](C)Nc1nnc(C)c2cnc(N3CCC34COC4)cc12` [Example P-231, (R)-2-methyl-3-(1-((4-methyl-7-(6-oxa-1-azaspiro[3.3]heptan-1-yl)pyrido[3,4-d]pyridazin-1-yl)amino)ethyl)benzonitrile formic acid salt]: in assay [1] (setting [2]), the inhibition constant Ki turned out to be 3.34 nM. The half-inhibitory concentration (IC50) in the assay on pERK in MKN1 cells (setting [6]) was 4290 nM.
As to `CCN1CCN(c2cc3c(N[C@H](C)c4cccc(C#N)c4C)nnc(C)c3cn2)C[C@@H]1C` [Example 1-18, 3-((R)-1-((7-((S)-4-ethyl-3-methylpiperazin-1-yl)-4-methylpyrido[3,4-d]pyridazin-1-yl)amino)ethyl)-2-methylbenzonitrile], in assay [1] (setting [4]), the inhibition constant Ki was determined as 0.836 nM. In addition, in the assay on pERK in MKN1 cells (setting [5]), the IC50 came to 35.9 nM.
In the same order, the values of `Cc1c(C#N)cccc1[C@@H](C)Nc1nnc(C)c2cnc(N3CCN(C)[C@H](C)C3)cc12` [Example 1-12, 3-((R)-1-((7-((R)-3,4-dimethylpiperazin-1-yl)-4-methylpyrido[3,4-d]pyridazin-1-yl)amino)ethyl)-2-methylbenzonitrile] are 1.01 nM and 56.6 nM.
For `Cc1c(Br)cccc1[C@@H](C)Nc1nnc(C)c2cc(F)c(N3CCC34CN(C)C4)cc12` [Example P-214, (R)-N-(1-(3-bromo-2-methylphenyl)ethyl)-6-fluoro-4-methyl-7-(6-methyl-1,6-diazaspiro[3.3]heptan-1-yl)phthalazin-1-amine], in assay [1] (setting [2]), the Ki was found to be 0.262 nM. Also, the IC50 with pERK in MKN1 cells (setting [3]) worked out at 156 nM.
On to `Cc1c(C#N)cccc1[C@@H](C)Nc1nnc(C)c2cc(F)c(N3CCC34CN(CCO)C4)cc12` [Example P-219, (R)-3-(1-((6-fluoro-7-(6-(2-hydroxyethyl)-1,6-diazaspiro[3.3]heptan-1-yl)-4-methylphthalazin-1-yl)amino)ethyl)-2-methylbenzonitrile], for which the inhibition constant Ki in assay [1] (setting [2]) stood at 0.665 nM. The IC50 in the assay on pERK in MKN1 cells (setting [3]) came out at 41.1 nM.
With `Cc1nnc(N[C@H](C)c2cccc(C(F)(F)F)c2F)c2cc(N3CCN(C)CC3)c(C#N)cc12` [Example 6-17, (R)-1-((1-(2-fluoro-3-(trifluoromethyl)phenyl)ethyl)amino)-4-methyl-7-(4-methylpiperazin-1-yl)phthalazine-6-carbonitrile], the Ki in assay [1] (setting [4]) worked out at 2.29 nM. For the same compound, the IC50 with pERK in MKN1 cells (setting [5]) was determined as 139 nM.
As to `Cc1nnc(N[C@H](C)c2cccc(C(F)F)c2F)c2cc(N3CCC34CN(C)C4)ccc12` [Example P-236, (R)-N-(1-(3-(difluoromethyl)-2-fluorophenyl)ethyl)-4-methyl-7-(6-methyl-1,6-diazaspiro[3.3]heptan-1-yl)phthalazin-1-amine], the inhibitory constant (Ki) in assay [1] (setting [2]) came out at 0.596 nM. Also, the IC50 in the assay with pERK in MKN1 cells (setting [3]) was 42.1 nM.
For the compound `COCCN1CC2(CCN2c2cc3c(N[C@H](C)c4cccc(C#N)c4C)nnc(C)c3cn2)C1` [Example P-217, (R)-3-(1-((7-(6-(2-methoxyethyl)-1,6-diazaspiro[3.3]heptan-1-yl)-4-methylpyrido[3,4-d]pyridazin-1-yl)amino)ethyl)-2-methylbenzonitrile formic acid salt], in assay [1] (setting [2]), the inhibition constant (Ki) turned out to be 0.762 nM. In addition, the half-maximal inhibitory concentration (IC50) with pERK in MKN1 cells (setting [6]) is 43.1 nM.
On to `Cc1c(C#N)cccc1[C@@H](C)Nc1nnc(C)c2c(C)nc(N3CCOCC3)cc12` [Example P-188, (R)-3-(1-((4,5-dimethyl-7-morpholinopyrido[3,4-d]pyridazin-1-yl)amino)ethyl)-2-methylbenzonitrile], for which, in assay [1] (setting [2]), the Ki turned out to be 2.5 nM. Also, the IC50 with pERK in MKN1 cells (setting [3]) came out at 49.1 nM.
`Cc1nnc(N[C@H](C)c2cccc(C(F)(F)F)c2F)c2cc(N(C)[C@@H]3CCN(C(C)C)C3)ncc12` [Example 1-76, N^1-((R)-1-(2-fluoro-3-(trifluoromethyl)phenyl)ethyl)-N^7-((R)-1-isopropylpyrrolidin-3-yl)-N^7,4-dimethylpyrido[3,4-d]pyridazine-1,7-diamine]: the Ki in assay [1] (setting [4]) came to 0.367 nM. For the same compound, the 50% inhibitory concentration (IC50) in the assay on pERK in MKN1 cells (setting [5]) worked out at 119 nM.
The like results for `CCN1CCC(Nc2cc3c(N[C@H](C)c4cccc(C#N)c4C)nnc(C)c3cn2)CC1` [Example 1-42, (R)-3-(1-((7-((1-ethylpiperidin-4-yl)amino)-4-methylpyrido[3,4-d]pyridazin-1-yl)amino)ethyl)-2-methylbenzonitrile] were, in that order, 7.37 nM and 257 nM.
For the compound `CC(=O)N1CC2(CCN2c2cc3c(N[C@H](C)c4cccc(C#N)c4C)nnc(C)c3cc2F)C1` [Example P-216, (R)-3-(1-((7-(6-acetyl-1,6-diazaspiro[3.3]heptan-1-yl)-6-fluoro-4-methylphthalazin-1-yl)amino)ethyl)-2-methylbenzonitrile formic acid salt], in assay [1] (setting [2]), the Ki stood at 1.98 nM. Also, the IC50 with pERK in MKN1 cells (setting [6]) is 27.9 nM.
As for `CCN1CCN(c2cc3c(N[C@H](C)c4cccc5c4OCC5(F)F)nnc(C)c3cn2)CC1` [Example 1-101, (R)-N-(1-(3,3-difluoro-2,3-dihydrobenzofuran-7-yl)ethyl)-7-(4-ethylpiperazin-1-yl)-4-methylpyrido[3,4-d]pyridazin-1-amine], the Ki in assay [1] (setting [4]) was 0.326 nM. The IC50 in the assay on pERK in MKN1 cells (setting [5]) worked out at 26.2 nM.
On to `Cc1c(C#N)cccc1[C@@H](C)Nc1nnc(C)c2cc(Cl)c(N(C)[C@@H]3CCN(C)C3)cc12` [Example P-194, 3-((R)-1-((6-chloro-4-methyl-7-(methyl((R)-1-methylpyrrolidin-3-yl)amino)phthalazin-1-yl)amino)ethyl)-2-methylbenzonitrile], for which the Ki in assay [1] (setting [2]) was found to be 5.27 nM. Also, in the assay on pERK in MKN1 cells (setting [3]), the half-maximal inhibitory concentration (IC50) was 231 nM.
As for `Cc1c(C#N)cccc1[C@@H](C)Nc1nnc(C)c2cnc(N3CCN(C(=O)[C@@H]4CCCN4C)CC3)cc12` [Example 2-2, 2-methyl-3-((R)-1-((4-methyl-7-(4-(methyl-L-prolyl)piperazin-1-yl)pyrido[3,4-d]pyridazin-1-yl)amino)ethyl)benzonitrile], the inhibition constant Ki in assay [1] (setting [4]) was 0.845 nM. Besides, the IC50 in the assay with pERK in MKN1 cells (setting [5]) is 456 nM.
In the same order, the values of `COCCN1CC2(C1)CN(c1cc3c(N[C@H](C)c4cccc(C#N)c4C)nnc(C)c3cn1)C2` [Example 1-59, (R)-3-(1-((7-(6-(2-methoxyethyl)-2,6-diazaspiro[3.3]heptan-2-yl)-4-methylpyrido[3,4-d]pyridazin-1-yl)amino)ethyl)-2-methylbenzonitrile] are 0.977 nM and 37.6 nM.
Regarding `Cc1c(C#N)cccc1[C@@H](C)Nc1nnc(C)c2cc(F)c(N3CC4(CN(C)C4)C3)cc12` [Example 4-9, (R)-3-(1-((6-fluoro-4-methyl-7-(6-methyl-2,6-diazaspiro[3.3]heptan-2-yl)phthalazin-1-yl)amino)ethyl)-2-methylbenzonitrile], in assay [1] (setting [4]), the Ki is 0.343 nM. Besides, the half-maximal inhibitory concentration (IC50) with pERK in MKN1 cells (setting [5]) was 24.1 nM.
The like results for `Cc1c(C#N)cccc1[C@@H](C)Nc1nnc(C)c2cnc(N3CCN(C(=O)[C@@H]4CCN(C)C4)CC3)cc12` [Example 2-5, 2-methyl-3-((R)-1-((4-methyl-7-(4-((R)-1-methylpyrrolidine-3-carbonyl)piperazin-1-yl)pyrido[3,4-d]pyridazin-1-yl)amino)ethyl)benzonitrile] were, in that order, 0.743 nM and 1050 nM.
Consider `Cc1c(C#N)cccc1[C@@H](C)Nc1nnc(C)c2cnc(N3CC4(CN(CCO)C4)C3)cc12` [Example 1-61, (R)-3-(1-((7-(6-(2-hydroxyethyl)-2,6-diazaspiro[3.3]heptan-2-yl)-4-methylpyrido[3,4-d]pyridazin-1-yl)amino)ethyl)-2-methylbenzonitrile], for which, in assay [1] (setting [4]), the Ki amounted to 0.797 nM. For the same compound, the IC50 in the assay on pERK in MKN1 cells (setting [5]) was found to be 1340 nM.
